This is an account of results in article PMC10726475, “Atypical N-Alkyl to N-Noralkoxy Switch in a Dual cSRC/BCR-ABL1 Kinase Inhibitor Improves Drug Efflux and hERG Affinity” (ACS Medicinal Chemistry Letters, 2023).

“And” between values parts separate entries of the source, which are not always exact repeats. Equal values may be shown once. Read-outs that look alike come from different tables or passages of the source. A value given as a limit tells only on which side of the number the result lay.

One data set deals with MDCKII-MDR1 cells. Briefly: MDCKII-MDR1 cell permeability.
Another data set deals with P-gp (MDR1). In words: in vitro. To be noted: dog, MDCK-MDR1.
The next data set is described as follows: in vitro. The following applies: human, Caco-2.
Another data set has as its system Caco-2 cells. Briefly: Caco-2 cell permeability. In general terms: Caco-2 cells form a polarised layer with tight junctions and transporters.
Data set [1] is described as follows: Plasma protein binding by equilibrium dialysis, rat. It counts as in vitro ADME. On the technique in general: In equilibrium dialysis free small molecules cross a membrane that holds back macromolecules.
Text: (§1) Human plasma (mixed gender) Ltd-People’s Hospital of Shandong Weifang Hi-
(§2) Tech Industrial Development Zone (Batch No. P-
(§3) Rat plasma (SD/mixed gender) BiolVT (Batch No. RAT501985)
(§4) Mouse plasma (CD-1/mixed gender) IPHASE or BiolVT (Batch No. MSE427337)
A short description of data set [2]: Plasma protein binding by equilibrium dialysis, human. It counts as in vitro ADME.
Text: as §1, §2, §3, §4
Data set [3] can be described thus: Plasma protein binding by equilibrium dialysis, mouse. It counts as in vitro ADME.
Text: as §1, §2, §3, §4
A short description of data set [4]: pKa determination by pH-metric method. It counts as physicochemical. The protocol: Figure 3 Matched molecular pair (MMP) analysis on the 2-methoxyphenoxy-propyl-N-methylpiperazine scaffold and pKa values of related δ-alkoxy substituted amines. (A) MMP analysis of a bosutinib fragment. All measurements were assayed by Pharmaron Inc., and values presented represent the mean of n = 2 technical replicates, unless otherwise specified. logD7.4 was determined by the shake-flask method. […] (B) Reported[54] pKa values of related dimethylamines highlighting similarities in pKa values of δ-alkoxy substitution patterns. TEXT PRINTED IN THE PICTURE: (A) 17: logD7.4: 0.9; Aq. Sol. (μM): 277; pKa1: 4.2; pKa2: 8.1 | (A) 18: logD7.4: 1.0; Aq. Sol. […]
Inc. using methods previously derscribed.1 […]
Shedlovsky extrapolation for the pH-metric pKa method. […]

Data set [5] can be described thus: logD7.4 by shake-flask method. To be noted: pH 7.4. Type of data set: physicochemical.
The nature of data set [6]: Solubility in aqueous buffer at pH 7.4. Type of data set: physicochemical. To be noted: aqueous buffer at pH 7.4, n = 1; read-out: aq sol.
For data set [7] the following is noted: cited from earlier work; for ΔpKa: relative to simple tertiary amine 19, δ-position substituent.
[8] abbreviates: pH-metric method, range -12, read-out: pKa1.

Text for MDCKII-MDR1 cells: (§5) Abbreviations: Papp, apparent permeability; AP, apical; BL, basolateral.
Text for P-gp (MDR1): as §5

On to `CN(N=O)C(=O)N[C@H]1C(O)O[C@H](CO)[C@@H](O)[C@@H]1O` (mixture of isomers) [Streptozotocin], for which the “Count (# of wells)” value in the data set on Salmonella strain TA1537 (TA1537+S9, 2.5E-06 M) is 0; in the data set with Salmonella strain TA1537 (TA1537-S9, 2.5E-06 M), 1; with Salmonella strain TA98 (TA98+S9, 2.5E-06 M), 6; in the data set on Salmonella strain TA98 (TA98-S9, 2.5E-06 M), 1; with Salmonella strain TA1535 (TA1535+S9, 2.5E-06 M) it was 48; in the data set with Salmonella strain TA1535 (TA1535-S9, 2.5E-06 M), 46. The “Count (# of wells)” value came out at 19 with Salmonella strain TA100 (TA100+S9, 2.5E-06 M) and 39 in the data set on Salmonella strain TA100 (TA100-S9, 2.5E-06 M). For the same molecule, the “Positive Significance (- to +++)” value in the data set with Salmonella strain TA1537 (TA1537+S9, 2.5E-06 M) is on record as “-”; in the data set on Salmonella strain TA1537 (TA1537-S9, 2.5E-06 M) it was “-”; in the data set on Salmonella strain TA98 (TA98+S9, 2.5E-06 M), “+ (weak positive, if P < 0.05)”; in the data set on Salmonella strain TA98 (TA98-S9, 2.5E-06 M), “-”.

In the case of `Nc1ccc2cc3ccccc3cc2c1` [2-Aminoanthracene], the “Count (# of wells)” value in the data set on Salmonella strain TA1537 (TA1537+S9, 2.0E-06 M) was 11; in the data set on Salmonella strain TA1537 (TA1537-S9, 1.0E-06 M), 0; in the data set with Salmonella strain TA98 (TA98+S9, 2.0E-06 M), 48; in the data set with Salmonella strain TA98 (TA98-S9, 1.0E-06 M) it was 1; with Salmonella strain TA1535 (TA1535+S9, 1.0E-06 M) it was 12; in the data set with Salmonella strain TA1535 (TA1535-S9, 1.0E-06 M), 0. In addition, the “Count (# of wells)” value was determined as 17 with Salmonella strain TA100 (TA100+S9, 1.0E-06 M) and 2 in the data set on Salmonella strain TA100 (TA100-S9, 1.0E-06 M). Besides, the “Positive Significance (- to +++)” value is “++ (strong positive, if P < 0.01)” in the data set with Salmonella strain TA1537 (TA1537+S9, 2.0E-06 M); “-” in the data set on Salmonella strain TA1537 (TA1537-S9, 1.0E-06 M); “-” in the data set on Salmonella strain TA98 (TA98-S9, 1.0E-06 M); “-” in the data set with Salmonella strain TA1535 (TA1535-S9, 1.0E-06 M); “++ (strong positive, if P < 0.01)” in the data set on Salmonella strain TA100 (TA100+S9, 1.0E-06 M); “-” in the data set on Salmonella strain TA100 (TA100-S9, 1.0E-06 M).

For the molecule `O=[N+]([O-])c1ccc2c(c1)Cc1ccccc1-2` [2-Nitrofluorene], the “Count (# of wells)” value with Salmonella strain TA1537 (TA1537+S9, 3.0E-05 M) was 2; in the data set on Salmonella strain TA1537 (TA1537-S9, 3.0E-05 M), 6; with Salmonella strain TA98 (TA98+S9, 3.0E-05 M) it was 28; in the data set with Salmonella strain TA98 (TA98-S9, 3.0E-05 M), 30; with Salmonella strain TA1535 (TA1535+S9, 3.0E-05 M), 0; in the data set with Salmonella strain TA1535 (TA1535-S9, 3.0E-05 M) it was 0. In addition, the “Count (# of wells)” value is reported as 0 in the data set on Salmonella strain TA100 (TA100+S9, 3.0E-05 M) and 2 with Salmonella strain TA100 (TA100-S9, 3.0E-05 M). Besides, the “Positive Significance (- to +++)” value in the data set with Salmonella strain TA1537 (TA1537+S9, 3.0E-05 M) is given as “-”; with Salmonella strain TA1537 (TA1537-S9, 3.0E-05 M), “+ (weak positive, if P < 0.05)”; with Salmonella strain TA1535 (TA1535+S9, 3.0E-05 M), “-”; in the data set on Salmonella strain TA1535 (TA1535-S9, 3.0E-05 M) it was “-”; in the data set with Salmonella strain TA100 (TA100+S9, 3.0E-05 M) it was “-”; in the data set on Salmonella strain TA100 (TA100-S9, 3.0E-05 M), “-”.

On to `Nc1c2ccccc2nc2ccccc12` [9-Aminoacridine], for which the “Count (# of wells)” value with Salmonella strain TA1537 (TA1537+S9, 1.0E-05 M) stood at 31; in the data set with Salmonella strain TA1537 (TA1537-S9, 1.0E-05 M) it was 25; in the data set on Salmonella strain TA98 (TA98+S9, 1.0E-05 M), 1; in the data set on Salmonella strain TA98 (TA98-S9, 1.0E-05 M), 2; in the data set with Salmonella strain TA1535 (TA1535+S9, 1.0E-05 M) it was 1; in the data set on Salmonella strain TA1535 (TA1535-S9, 1.0E-05 M), 0. In addition, the “Count (# of wells)” value in the data set on Salmonella strain TA100 (TA100+S9, 1.0E-05 M) amounted to 2; with Salmonella strain TA100 (TA100-S9, 1.0E-05 M), 0. Also, the “Positive Significance (- to +++)” value is “-” in the data set with Salmonella strain TA98 (TA98+S9, 1.0E-05 M); “-” with Salmonella strain TA98 (TA98-S9, 1.0E-05 M); “-” in the data set on Salmonella strain TA1535 (TA1535+S9, 1.0E-05 M); “-” in the data set with Salmonella strain TA1535 (TA1535-S9, 1.0E-05 M); “-” in the data set on Salmonella strain TA100 (TA100+S9, 1.0E-05 M); “-” in the data set on Salmonella strain TA100 (TA100-S9, 1.0E-05 M).

As to `C[C@H]1O[C@@H](O[C@H]2[C@@H](O)C[C@H](O[C@H]3[C@@H](O)C[C@H](O[C@H]4CC[C@@]5(C)[C@H](CC[C@@H]6[C@@H]5C[C@@H](O)[C@]5(C)[C@@H](C7=CC(=O)OC7)CC[C@]65O)C4)O[C@@H]3C)O[C@@H]2C)C[C@H](O)[C@@H]1O` [Digoxin], in the data set with MDCKII-MDR1 cells, the “Recovery% (BL-AP)” value stood at 92.45%. For the same molecule, in the data set on P-gp (MDR1), the Papp A→B (as a rule, the apparent permeability from the apical to the basolateral side of a cell layer) at 2 h, 1 μM came out at 0.26 ×10⁻⁶ cm/s; the Papp B→A (usually the apparent permeability from the basolateral to the apical side of a cell layer) at 2 h, 1 μM is 10.2 ×10⁻⁶ cm/s; the efflux ratio (in general, the permeability from basolateral to apical divided by that in the opposite direction, in the common usage) at 2 h, 1 μM came to 38.6; the recovery amounted to 96.3%. In “in vitro”, the Papp A→B at 2 h, 5 μM came to 0.34 ×10⁻⁶ cm/s; the Papp B→A at 2 h, 5 μM is 15.6 ×10⁻⁶ cm/s; the efflux ratio at 2 h, 5 μM came out at 45.6; the recovery came out at 103%. The “Recovery% (BL-AP)” value with Caco-2 cells is given as 101.40%.

Turning to `CC(=O)N1CCN(c2ccc(OCC3COC(Cn4ccnc4)(c4ccc(Cl)cc4Cl)O3)cc2)CC1` (centres unmarked) [Ketoconazole], the “fu, plasma % / %Unbound” value in [1] (5 μM, equilibrium dialysis) is 0.67%; in [2] (5 μM, equilibrium dialysis), 0.82%. Moreover, the recovery in [1] (both sexes, SD) was 103%; in data set [2] (both sexes) it was 98.6%; in data set [3] (both sexes, CD-1), 96.8%. For the same molecule, the fraction unbound at 5 μM is 0.0067 in [1] (both sexes, SD, read-out: fu, plasma % / %Unbound (converted)); 0.0082 in data set [2] (both sexes, read-out: %Bound (converted)); 0.0058 in [3] (both sexes, CD-1, 5 μM, equilibrium dialysis, read-out: fu, plasma % / %Unbound). For the same molecule, the share remaining at 6 h, 5 μM is 102% in [2] (both sexes) and 96.3% in [3] (both sexes, CD-1). Further, the “%Bound” value in [3] came out at 99.42%.

Regarding `COc1ccccc1OCCCN1CCN(C)CC1` [compound 17], the pKa was determined as 8.1 in data set [4] (pH 2, pH-metric method, range pH 2-12, read-out: pKa2) and 4.2 in [4] (setting [8]). Moreover, the logD (in general, lipophilicity at a set pH, counting ionised and neutral species) at 2 h in data set [5] turned out to be 0.9. Also, the solubility in data set [6] is > 250 µM and 277 µM.

Consider `COc1ccccc1OCCON1CCN(C)CC1` [compound 18], for which the pKa in data set [4] (setting [8]) came to 7.4. The same molecule came in with a ΔpKa in [4] (terminal N-methylamine of 18 relative to 17) of −0.7. The same molecule displayed a logD at 2 h in data set [5] of 1. The solubility in data set [6] is > 250 µM and 287 µM.

For `COCCCN(C)C` [compound 20], in data set [7], the ΔpKa is recorded as −0.8.

As to `CN(C)CCCO` [compound 21], the ΔpKa in data set [7] is −0.9.

Consider `NO` [hydroxylamine], for which the pKa in data set [7] (simple hydroxylamine) is reported as 5.9.
